Here are results for four compounds from patent publication US20250271419A1, “PLACENTA ORGANOID ON-A-CHIP AND USE THEREOF” (THE REGENTS OF THE UNIVERSITY OF CALIFORNIA, priority 2024, published 2025).

The subject of data set [1] is day 7 placental organoids. Kind of data set: Drug toxicity response, CellTiter-Glo luminescent cell viability, day 7 placental organoids. The conditions noted are these: Homo sapiens, read-out: IC50 (drug toxicity based on cell survival). From the text: It is well-established that ethical constraints hamper the testing of drugs on pregnant women. Furthermore, maternal drug usage is known to promote a range of conditions, such as fetal drug tolerance, antibiotic resistance, toxicity, obesity and diabetes. While it is rendered safe to use certain drugs during pregnancy, the actual short as well as long-term effects of these drugs on fetal health cannot be currently studied. Therefore, as an application of the placental organoids systems in drug toxicity testing, these organoids were treated with commonly used compounds such as nicotine, acetaminophen, ibuprofen and lumiracoxib. […] Acetaminophen, also known as paracetamol, is usually considered as a safe antipyretic and analgesic medicine for pregnant women. However, acetaminophen and its metabolites easily cross the placenta and are potentially toxic as it has previously been detected in the fetus and is implicated in adverse birth and later life health outcomes. Nonsteroidal anti-inflammatory drugs (NSAIDs) such as Ibuprofen are the most commonly used medications for the treatment of pain, inflammation and fever during pregnancy. Ibuprofen readily enters fetal circulation, raising concerns about its long-term effects on fetal health and development. While the use of another NSAID, Lumiracoxib, has not been adequately investigated. […] Therefore, it has been recommended that it should not be used during the first two trimesters of pregnancy unless it justifies the potential risk to the fetus. Day 7and day 15 placental organoids were treated with increasing doses of drugs such as nicotine, acetaminophen, ibuprofen and lumiracoxib. The drug toxicity and IC50 value of the drugs was determined based on cell survival at 24 and 48 hours post drug exposure.
Placental organoids (12-15 organoids/well) were treated with different concentrations of nicotine (0.1, 0.5, 1, 5, 10, 20 mg/mL), acetaminophen (0.01, 0.1, 1, 5, 10, 20 mM), ibuprofen (25, 50, 100, 200, 400, 800 mg/mL) and lumiracoxib (0.01, 0.1, 1, 5, 10, 20 mM) for 24 and 48 hours to determine the IC50 value for drug toxicity. Post-incubation with the drugs for 24 and 48 hours respectively, the cell viability was determined using a CellTiter-Glo Luminescent cell viability assay (Promega #G7570). Briefly, cell supernatant was mixed with equal volume of CellTiter-Glo reagent for 2 minutes on an orbital shaker, incubated for 10 minutes in dark at room temperature and then the luminescence was determined using a Tecan plate reader (Tecan Spark).

For data set [2] the following is noted: crosses the placental barrier; cited from earlier work.

Where two headings read alike, the source gives them in different places.

As to `CC(C)Cc1ccc(C(C)C(=O)O)cc1` (centres unmarked) [ibuprofen], the half-maximal inhibitory concentration (IC50) in data set [1] (48 hours post drug exposure) amounted to 45300 µg/mL.

Turning to `Cc1ccc(Nc2c(F)cccc2Cl)c(CC(=O)O)c1` [lumiracoxib], the IC50 in data set [1] (24 hours post drug exposure) was 841 µM; in data set [1] (48 hours post drug exposure), 220 µM.

As to `CC(=O)Nc1ccc(O)cc1` [acetaminophen], the IC50 in data set [1] (24 hours post drug exposure) worked out at 2680 µM; in data set [1] (48 hours post drug exposure), 1110 µM.

As to `CN1CCCC1c1cccnc1` (centres unmarked) [nicotine], the IC50 came to 5700 µg/mL in data set [1] (24 hours post drug exposure) and 1190 µg/mL in data set [1] (48 hours post drug exposure). The “fetal concentration higher than mother” value in data set [2] is 15%.
